Laboratory results reported in US5356921A, “Imidazolylphenol compounds, pharmaceutical compositions containing them, and processes for preparing such compounds and compositions” (Gruenenthal GmbH, priority 1992, dated 1994).

Legend:
5-lipoxygenase [1] = target: T1, 5-lipoxygenase (Rattus norvegicus, UniProt P12527); assay: Inhibition of 5-lipoxygenase in RBL-1-cells; assay type: cell-based; conditions: 20 μM [14C]-arachidonic acid, 20 μM A 23 187
T1 construct: endogenous in cells; host or cells: RBL-1 cells (rat basophilic leukemia), intact
T1 sequence (P12527 1-673): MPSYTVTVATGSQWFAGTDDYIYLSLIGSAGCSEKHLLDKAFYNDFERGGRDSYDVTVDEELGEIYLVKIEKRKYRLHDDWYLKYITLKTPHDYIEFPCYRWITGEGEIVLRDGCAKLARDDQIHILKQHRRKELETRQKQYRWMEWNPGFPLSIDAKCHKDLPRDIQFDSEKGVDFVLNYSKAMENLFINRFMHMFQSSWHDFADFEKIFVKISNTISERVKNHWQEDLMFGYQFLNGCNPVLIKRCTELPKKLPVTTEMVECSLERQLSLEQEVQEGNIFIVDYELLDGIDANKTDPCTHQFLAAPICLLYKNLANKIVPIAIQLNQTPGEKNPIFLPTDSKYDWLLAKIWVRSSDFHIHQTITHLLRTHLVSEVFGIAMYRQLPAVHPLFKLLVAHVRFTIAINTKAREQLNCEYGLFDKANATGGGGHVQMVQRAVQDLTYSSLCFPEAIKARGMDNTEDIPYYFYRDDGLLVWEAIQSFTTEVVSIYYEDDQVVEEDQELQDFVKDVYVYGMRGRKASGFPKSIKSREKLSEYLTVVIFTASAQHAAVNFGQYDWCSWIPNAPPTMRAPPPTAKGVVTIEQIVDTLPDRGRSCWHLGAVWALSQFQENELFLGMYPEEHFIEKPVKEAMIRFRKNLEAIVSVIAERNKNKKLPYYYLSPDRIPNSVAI
Experimental: To determine the inhibition of 5-lipoxygenase rat basophilic leukemia cells (RBL-1-cells) were cultured in vitro, harvested by centrifugation, washed with 50 mM potassium phosphate buffer of pH 7.4, and then suspended in this buffer at 1×10^7 cells/mi. To 1 ml each of this suspension there was added indomethacin (10 μM) and calcium chloride (2 mM), and then the mixture was incubated in the absence or presence of a compound according to the invention in a concentration range of from 0.1 μM to 100 μM for 3 minutes and thereafter with 20 μM of [^14 C]-arachidonic acid and 20 μM of the calcium ionophore A 23 187 for 10 minutes. The reaction was stopped by adding 20 μl of glacial acetic acid, and then the mixture was extracted with ethyl acetate to isolate the metabolites of arachidonic acid formed by the enzymatic action of 5-lipoxygenase. These were separated by thin layer chromatography using a solvent mixture known to be suitable for lipoxygenase products [c.f. Jakschik et al., Biochem. Biophys. Res. Commun. 102, 624 (1981)].
The distribution of the radioactivity among the various metabolites of arachidonic acid was measured using a TLC Linear Analyzer. By correlating the percentages of the amount of the products formed under the action of 5lipoxygenase (5-HETE, isomers of LTB4) in the absence as well as in the presence of different concentrations of compounds according to the invention, the IC50 -values, i.e. the concentrations which cause 50% inhibition of 5-lipoxygenase were determined graphically from semilogarithmic diagrams.

5-lipoxygenase [2] = target: T1, 5-lipoxygenase; assay: Inhibition of cell-free 5-lipoxygenase from RBL-1-cells; assay type: biochemical; conditions: 10,000×g supernatant of RBL cells; polarographic; arachidonic acid 75 μM
Experimental: Cell-free 5-lipoxygenase was polarographically measured from 10,000×gsupernatant of homogenized rat basophilic leucemia cells [M. Haurand and L. Flohe in Biol. Chem. Hoppe-Seyler 369, 133-142 (1988)]. After preincubation of the 10,000×g supernatant with arachidonic acid (75 μM), ATP (adenosine triphosphate; 4 μM), reduced glutathione (4 mM), and either a compound according to the invention (0.1 to 100 μM) or a solvent (ethanol and/or dimethyl sulfoxide) at 35° C. for 5 minutes, the lipoxygenase reaction was initiated by addition of calcium chloride (3 mM) and recorded simultaneously.
The activity of 5-lipoxygenase was determined from the difference of the pO2 -decrease before and after addition of calcium chloride. The evaluation included the initial rate of the reaction after the lag-phase as well as the duration of the lag-phase. In a concentration range of from 5 to 10 μM the test substances induced lag-phases of 15 seconds.

5-lipoxygenase [3] = assay: 5-lipoxygenase inhibition in rat blood after oral administration (ex vivo iLTB4-formation); conditions: male Wistar rats, 21.5 mg/kg oral, one hour after administration, A 23 187 15 μg/ml
Experimental: The bioavailability of the compounds of formula I as 5-lipoxygenase inhibitors was characterized by means of an ex vivo biochemical assessment method described by Tateson et al. in Brit. J. Pharmacol. 94, 528 (1988). A compound of formula I was orally administered to male rats (Wistar strain) in a dose of 21.5 mg/kg. One hour after administration the rats after lethal CO2 -narcosis were bled by heart puncture with added heparin as an anticoagulant. Aliquots of the whole blood were incubated at 37° C. for 30 minutes in a water bath with calcium ionophore A 23 187 at an end concentration of 15 μg/ml. At the end of the incubation the samples were centrifuged, and the concentration of immunoreactive LTB4 (iLTB4) in aliquots of […] percent inhibition of ex vivo iLTB4 -formation in whole blood of rats treated with a compound according to the invention, rats orally treated with an appropriate vehicle solution were included in all experiments, and aliquots of their blood were run in parallel and were processed in the same way as described. The average iLTB4 -content of the plasma of the vehicle treated rats served as the 100% value. The activity in percent of the ex vivo iLTB4 -formation after oral administration of a compound according to the invention was calculated by dividing the average value of the iLTB4 -content in ng iLTB4 /ml of the group treated with a compound according to the invention by the average value of the iLTB4 -contents in ng iLTB4 /ml of the vehicle treated group and subsequent multiplication by the factor 100. The respective inhibition in percent was calculated by subtracting the activity in percent from 100.

guinea pigs = assay: Allergen-induced bronchoconstriction in guinea pigs (Konzett-Roessler); assay type: in vivo, guinea pig; conditions: Cavia porcellus, po, 1 h, 60 minutes before ovalbumin, read-out: ED40-Value, inhibition of the bronchoconstriction elicited by ovalbumin
Experimental: The antiasthmatic effect of compounds according to the invention was tested in anesthetized and ventilated guinea pigs. To induce an asthmatic reaction, the animals were passively sensitized by a single intraperitoneal injection of anti-ovalbumin serum. After 48 hours an asthmatic reaction was elicited by intravenous challenge with 0.2 mg/kg of ovalbumin. The immediately resulting bronchoconstriction was measured as an increase in intratracheal pressure. Effects caused by histamine, serotonin and sympathic counterreaction were eliminated by intravenous pretreatment with 2.15 mg/kg of mepyramine, 46.4 μg/kg of propranolol, 4.64 mg/kg of atropine, and 1 mg/kg of methysergide, all administered 5 minutes before challenge. Compounds according to the invention were orally administered 60 minutes before the administration of ovalbumin. The following ED40-values for the inhibition of the bronchoconstriction elicited by ovalbumin, i.e. the effective doses causing a 40% average inhibition of the bronchoconstriction, were determined: […]

Structure (SMILES): NC(=O)N(O)Cc1ccc(Oc2ccc(-n3ccnc3)cc2)cc1 [Example 1, N-hydroxy-N-[4-[4-(1H-imidazol-1-yl)phenoxy]phenylmethyl]urea]
- IC50 (5-lipoxygenase [1]): 2 µM
- IC50 (5-lipoxygenase [2]): 7 µM
- Inhibition of ex vivo iLTB4-formation in whole blood (5-lipoxygenase [3]; 21.5 mg/kg): 89%
- ED40 (guinea pigs): 9.3 mg/kg

Structure (SMILES): CC(=O)N(O)Cc1ccc(Oc2ccc(-n3ccnc3)cc2)cc1 [Example 3, N-hydroxy-N-[4-[4-(1H-imidazol-1-yl)phenoxy]phenylmethyl]acetamide]
- IC50 (5-lipoxygenase [1]): 5 µM
- IC50 (5-lipoxygenase [2]): 3 µM
- Inhibition of ex vivo iLTB4-formation in whole blood (5-lipoxygenase [3]): 91%
- ED40 (guinea pigs): 15.5 mg/kg
